The conditions of series [1]: injected by the subcutaneous route, diabetic patients; cited from earlier work.
The nature of series [2]: Solubility in a buffer solution at 50 mM Tris/HCl pH 7.4 (visual inspection). The series is classed as physicochemical. Here is the method: The solubility of the substituted citrates (A1, A2, A3 and A4) was measured in a buffer solution.
In a buffer solution at 50 mM of Tris/HCl, pH 7.4 (1 mL), the substituted citrate in powder form (20 mg) is introduced. The tubes are stirred (rolling shaker) for 30 minutes at ambient temperature, then inspected visually. The pH is adjusted to 7.4±0.4.
The solubility of the compounds of the prior art (CE1 and CE2) was measured.
4 mL of a buffer solution at 50 mM of Tris/HCl at pH 7.4 were introduced into a glass tube, at ambient temperature. The compounds in powder form were added successively in the amount of 8 mg per addition. After each addition of compound, the tubes were stirred (rolling shaker) for 30 minutes at ambient temperature, then inspected visually. The pH is adjusted to 7.4±0.4.
The concentrations at which insoluble matter was observed are defined as being greater than the limit of solubility of the compound.

Series [3] is described as follows: Solubility in the presence of insulin lispro 100 IU/mL (commercial Humalog, visual inspection). The series is classed as physicochemical. The note with it: commercial insulin lispro solution (Humalog) 100 IU/mL, aqueous with cosolvent or surfactant or cyclodextrin, thermodynamic from solid, pH 7.4±0.4, ambient temperature, 30 minutes stirring, read-out: Solubility (limit of solubility). Here is the method:
The solubility of the substituted citrates (A1, A2, A3 and A4) is measured in the presence of insulin lispro 100 U/mL. In a commercial solution of insulin lispro (Humalog®) (1 mL), the substituted citrate in powder form (20 mg) is introduced. The tube was stirred (rolling shaker) for 30 minutes at ambient temperature, then inspected visually. The pH is adjusted to 7.4±0.4.
The solubility of the compounds of the prior art was also measured in the presence of insulin lispro 100 U/mL. 1 mL of a commercial solution of Humalog was introduced into a glass tube, at ambient temperature. The compounds in powder form were added successively in the amount of 2 mg per addition. After each addition of compound, the tubes were stirred (rolling shaker) for 30 minutes at ambient temperature, then inspected visually. The pH is adjusted to 7.4±0.4.
The concentrations at which insoluble matter was observed are defined as being greater than the limit of solubility of the compound in the presence of insulin lispro 100 IU/mL.

Series [4] addresses T1, hexameric R6 form of insulin lispro (Homo sapiens, UniProt P01308, K53P/P52K).
T1 construct: The insulin lispro has a strong signal at 240 nm characteristic of the hexameric R6 form; purchased Lilly
As to the kind of experiment: Association state of the insulin lispro evaluated by circular dichroism (CD signal at 240 nm). It is filed as physicochemical. Particulars: insulin lispro 100 IU/mL (Humalog), pH 7.4; additive alone (EDTA 300 μM; substituted citrate 7.3 or 14.6 mg/mL). Here is the method:
Circular dichroism makes it possible to study the secondary and quaternary structure of the insulin. The monomers of insulin self-organize to form dimers and hexamers. […] There are two hexameric forms, R6 form and T6 form. […] The loss of the signal at 240 nm is connected with a destabilization of the hexamer and the conversion from R6 to T6.
For a final volume of 100 mL of formulation, with a concentration of substituted citrate at 7.3 mg/mL and a concentration of 9.3 mM of citrate, the different reagents are added in the quantities specified below and in the following order:
For a final volume of 100 mL of formulation, with a concentration of substituted citrate at 7.3 mg/mL, the different reagents are added in the quantities specified below and in the following order:
For a final volume of 100 mL of formulation, with a concentration of 300 μM of EDTA, the different reagents are added in the quantities specified below and in the following order:
(§1) Two measurement series were carried out.
Circular dichroism makes it possible to study the secondary and quaternary structures of insulin. The monomers of insulin self-organize to form dimers and hexamers. […]
For a final volume of 100 mL of formulation, with a concentration of substituted citrate at 7.3 mg/mL or 14.6 mg/mL, the different reagents are added in the quantities specified below and in the following order: […]

The target of series [5] is T2, hexameric R6 form of human insulin (Homo sapiens, UniProt P01308).
T2 construct: The human insulin has a strong signal at 240 nm, characteristic of the hexameric R6 form
T2 sequence (P01308 25-54 limits assumed): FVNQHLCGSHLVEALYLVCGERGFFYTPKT
T2 sequence (P01308 90-110 limits assumed): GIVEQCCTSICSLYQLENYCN
Nature of the series: Association state of human insulin evaluated by circular dichroism (CD signal at 240 nm). It is filed as physicochemical. The note with it: human insulin 100 IU/mL (Humulin R), pH 7.4; additive alone (EDTA 300 μM or 6 mM; substituted citrate 7.3 or 14.6 mg/mL). Here is the method: Circular dichroism makes it possible to study the secondary and quaternary structures of insulin. The monomers of insulin self-organize to form dimers and hexamers. […] There are two hexameric forms, the R6 form and the T6 form. […] The loss of the signal at 240 nm is connected with a destabilization of the hexamer and the conversion from R6 to T6.
For a final volume of 100 mL of formulation, with a concentration of substituted citrate at 7.3 mg/mL and a concentration of 9.3 mM of citrate, the different reagents are added in quantities specified below and in the following order:
For a final volume of 100 mL of formulation, with a concentration of substituted citrate at 7.3 mg/mL or 14.6 mg/mL, the different reagents are added in the quantities specified below and in the following order:
For a final volume of 100 mL of formulation, with a concentration of 300 μM or 6 mM of EDTA, the different reagents are added in the quantities specified below and in the following order:
as §1

The mark [6] stands for this setting: 50 mM Tris/HCl buffer, aqueous buffer, thermodynamic from solid, buffer solution 50 mM Tris/HCl, pH 7.4, ambient temperature, 30 minutes stirring, read-out: Solubility (limit of solubility).
The mark [7] stands for this setting: pH 7.4, thermodynamic from solid, medium not named at this place, sums up Tables 3 and 4 (Tris/HCl buffer and Humalog), read-out: limit of solubility (summary statement).

We go through 4 compounds from patent US10792335B2, “Rapid-acting insulin composition comprising a substituted citrate” (ADOCIA, priority 2015, dated 2020).

Peptide text beside a SMILES is read from it. * marks the point of attachment. Cbz = O=C(OCc1ccccc1)* Bounds are passed on as bounds.

T1 sequence (P01308 25-54 P52K/K53P limits assumed): as the sequence (P01308 25-54 limits assumed) above, with P28K, K29P counted along it

With “human insulin: human insulin produced by genetic engineering, injected subcutaneously”, in series [1], the “time after which a hypoglycemic effect is produced” value was 60 min.

As to `O=C(N[C@@H](Cc1ccccc1)C(=O)N[C@@H](Cc1ccccc1)C(=O)O)OCc1ccccc1` [CE1, N-Carbobenzoxy-L- phenylalanyl-L- phenylalanine] (Cbz-Phe-Phe-OH), the solubility at 30 min in series [2] (setting [6]), in series [2] (setting [7]) and in series [3] was below 2000 µg/mL throughout.

`O=C(N[C@@H](Cc1ccccc1)C(=O)O)c1ccccc1` [CE2, Benzoyl-L- phenylalanine]: the solubility at 30 min in series [2] (setting [6]), in series [2] (setting [7]) and in series [3] was below 2000 µg/mL each time.

`O=C(O)CN(CCN(CC(=O)O)CC(=O)O)CC(=O)O` [EDTA]: the “impact on the CD signal at 240 nm / R6 form of the insulin lispro hexamer” value in series [4] is listed as “completely destructures the R6 form”. The “impact on the CD signal at 240 nm / R6 form of the human insulin hexamer” value in series [5] is given as “completely destructures the R6 form”.
